Assay results from patent US11051515B2, “3-acyl-benzamides and their use as herbicides” (Bayer Aktiengesellschaft, priority 2017, dated 2021).

What was measured:
HORMU = assay: Pre-emergence action against HORMU; format: in vivo, Hordeum murinum; conditions: Dosage 320 g/ha
From the text: (§1) Seeds of monocotyledonous and dicotyledonous weed plants and crop plants are laid out in sandy loam soil in wood-fiber pots and covered with soil. The compounds of the invention, formulated in the form of wettable powders (WP) or as emulsion concentrates (EC), are then applied to the surface of the covering soil in the form of an aqueous suspension or emulsion at a water application rate equating to […], with addition of 0.2% wetting agent. After the treatment, the pots are placed in a greenhouse and kept under good growth conditions for the trial plants. The damage to the test plants is scored visually after a test period of 3 weeks by comparison with untreated controls (herbicidal activity in percent (%): 100% activity=the plants have died, 0% activity=like control plants).

VERPE = assay: Pre-emergence action against VERPE; format: in vivo, Veronica persica; conditions: Dosage 320 g/ha, pre-emergence
Method in brief: (§2)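 Seeds sown in sandy loam in wood-fiber pots and covered with soil. Greenhouse growth; visual damage scored after 3 weeks versus untreated controls (100% = dead, 0% = like control).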

AMARE [1] = assay: Post-emergence action against AMARE; format: in vivo, Amaranthus retroflexus; conditions: post-emergence, dosage 80 g/ha, visual assessment about 3 weeks after treatment vs untreated controls
Method in brief: (§3)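 Weeds grown in sandy loam in greenhouse, treated at one-leaf stage (2–3 weeks after sowing) with WP or EC formulations sprayed as aqueous suspension/emulsion at 600 to […] water with 0.2% wetting agent. Visual rating after about 3 weeks versus untreated controls, as % herbicidal action (100% = plants dead, 0% = like control).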

AVEFA [2] = assay: Post-emergence action against AVEFA; format: in vivo, Avena fatua; conditions: post-emergence, dosage 80 g/ha, visual assessment about 3 weeks after treatment vs untreated controls
Method in brief: as §3

SETVI [3] = assay: Post-emergence action against SETVI; format: in vivo, Setaria viridis; conditions: post-emergence, dosage 80 g/ha, visual assessment about 3 weeks after treatment vs untreated controls
Method in brief: as §3

ABUTH [4] = assay: Post-emergence action against ABUTH; format: in vivo, Abutilon theophrasti; conditions: post-emergence, dosage 80 g/ha, visual assessment about 3 weeks after treatment vs untreated controls
Method in brief: as §3

AVEFA [5] = assay: Pre-emergence action against AVEFA; format: in vivo, Avena fatua; conditions: dosage 320 g/ha, scored visually after 3 weeks vs untreated controls
Method in brief: as §2

AMARE [6] = assay: Pre-emergence action against AMARE; format: in vivo, Amaranthus retroflexus; conditions: pre-emergence, dosage 320 g/ha, scored visually after 3 weeks vs untreated controls
Method in brief: as §2

SETVI [7] = assay: Pre-emergence action against SETVI; format: in vivo, Setaria viridis; conditions: pre-emergence, dosage 320 g/ha, scored visually after 3 weeks vs untreated controls
Method in brief: as §2

LOLRI = assay: Pre-emergence action against LOLRI; format: in vivo, Lolium rigidum; conditions: dosage 320 g/ha, scored visually after 3 weeks vs untreated controls
From the text: as §1

STEME [8] = assay: Pre-emergence action against STEME; format: in vivo, Stellaria media; conditions: Dosage 320 g/ha, pre-emergence
Method in brief: as §2

MATIN [9] = assay: Post-emergence action against MATIN; format: in vivo, Matricaria inodora; conditions: post-emergence, dosage 80 g/ha, visual assessment about 3 weeks after treatment vs untreated controls
Method in brief: as §3

PHBPU [10] = assay: Post-emergence action against PHBPU; format: in vivo, Pharbitis purpurea; conditions: post-emergence, dosage 80 g/ha
Method in brief: as §3

ECHCG [11] = assay: Post-emergence action against ECHCG; format: in vivo, Echinochloa crus-galli; conditions: post-emergence, dosage 80 g/ha, visual assessment about 3 weeks after treatment vs untreated controls
Method in brief: as §3

VIOTR [12] = assay: Pre-emergence action against VIOTR; format: in vivo, Viola tricolor; conditions: Dosage 320 g/ha, pre-emergence
Method in brief: as §2

STEME [13] = assay: Post-emergence action against STEME; format: in vivo, Stellaria media; conditions: post-emergence, dosage 80 g/ha
Method in brief: as §3

ALOMY = assay: Pre-emergence action against ALOMY; format: in vivo, Alopecurus myosuroides; conditions: dosage 320 g/ha; pre-emergence; scored visually after 3 weeks vs untreated controls; 100% = plants have died, 0% = like control plants
Method in brief: as §2

ECHCG [14] = assay: Pre-emergence action against ECHCG; format: in vivo, Echinochloa crus-galli; conditions: pre-emergence, dosage 320 g/ha, scored visually after 3 weeks vs untreated controls
Method in brief: as §2

ABUTH [15] = assay: Pre-emergence action against ABUTH; format: in vivo, Abutilon theophrasti; conditions: pre-emergence, dosage 320 g/ha, scored visually after 3 weeks vs untreated controls
Method in brief: as §2

MATIN [16] = assay: Pre-emergence action against MATIN; format: in vivo, Matricaria inodora; conditions: Dosage 320 g/ha, pre-emergence
Method in brief: as §2

CYPES [17] = assay: Pre-emergence action against CYPES; format: in vivo, Cyperus esculentus; conditions: pre-emergence, dosage 320 g/ha, scored visually after 3 weeks vs untreated controls
Method in brief: as §2

VIOTR [18] = assay: Post-emergence action against VIOTR; format: in vivo, Viola tricolor; conditions: post-emergence, dosage 80 g/ha
Method in brief: as §3

PHBPU [19] = assay: Pre-emergence action against PHBPU; format: in vivo, Pharbitis purpurea; conditions: Dosage 320 g/ha, pre-emergence
Method in brief: as §2

POLCO [20] = assay: Pre-emergence action against POLCO; format: in vivo, Polygonum convolvulus; conditions: Dosage 320 g/ha, pre-emergence
Method in brief: as §2

CYPES [21] = assay: Post-emergence action against CYPES; format: in vivo, Cyperus esculentus; conditions: post-emergence, dosage 80 g/ha, visual assessment about 3 weeks after treatment vs untreated controls
Method in brief: as §3

POLCO [22] = assay: Post-emergence action against POLCO; format: in vivo, Polygonum convolvulus; conditions: post-emergence, dosage 80 g/ha
Method in brief: as §3

| SMILES | Pre-emergence action against HORMU (HORMU) [%] | Pre-emergence action against VERPE (VERPE) [%] | Post-emergence action against AMARE (herbicidal action in percent) (AMARE [1]) [%] | Post-emergence action against SETVI (herbicidal action in percent) (SETVI [3]) [%] | Post-emergence action against ABUTH (herbicidal action in percent) (ABUTH [4]) [%] | Pre-emergence action against AVEFA (herbicidal activity) (AVEFA [5]) [%] | Pre-emergence action against AMARE (herbicidal activity) (AMARE [6]) [%] | SETVI (Table B8, pre-emergence herbicidal activity) (SETVI [7]) [%] | Pre-emergence action against LOLRI (herbicidal activity) (LOLRI) [%] | Pre-emergence action against STEME (STEME [8]) [%] | Post-emergence action against MATIN (herbicidal action in percent) (MATIN [9]) [%] | Post-emergence action against PHBPU (PHBPU [10]) | Post-emergence action against ECHCG (herbicidal action in percent) (ECHCG [11]) [%] | Pre-emergence action against VIOTR (VIOTR [12]) [%] | Post-emergence action against STEME (STEME [13]) | Pre-emergence action against ALOMY (herbicidal activity in percent) (ALOMY) [%] | Pre-emergence action against ECHCG (herbicidal activity) (ECHCG [14]) [%] | Pre-emergence action against ABUTH (herbicidal activity) (ABUTH [15]) [%] | Pre-emergence action against MATIN (MATIN [16]) [%] | Pre-emergence action against CYPES (herbicidal activity) (CYPES [17]) [%] | further results |
| --- | --- | --- | --- | --- | --- | --- | --- | --- | --- | --- | --- | --- | --- | --- | --- | --- | --- | --- | --- | --- | --- |
| Cn1nnnc1NC(=O)c1ccc(C(F)(F)F)c(C(=O)C2(C)CC2)c1Cl [1-147] | 90 | 100 | 100 | 100 | 100 | 90 | 100 | 100 | 90 | 100 | 90 | 80 | 100 | 100 | 80 | 100 | 100 | 100 | 100 | 100 | Post-emergence action against AVEFA (herbicidal action in percent) (AVEFA [2]): 100% |
| CCn1nnnc1NC(=O)c1ccc(C(F)F)c(C(C)=O)c1Cl [2-164] | 80 | 100 | 100 | 100 | 100 | 90 | 100 | 100 | 80 | 100 | 100 | 100 | 100 | 100 | 100 | 100 | 100 | 100 | 100 | 100 | Post-emergence action against VIOTR (VIOTR [18]): 100; Pre-emergence action against PHBPU (PHBPU [19]): 90%; Pre-emergence action against POLCO (POLCO [20]): 100%; Post-emergence action against CYPES (herbicidal action in percent) (CYPES [21]): 90%; Post-emergence action against POLCO (POLCO [22]): 80 |
